Converted amounts (≈) assume the structure as drawn.
Columns and labels:
[1] = tested on: NMDA (N-methyl-D-aspartate) receptors; details: in words, literature; cited from earlier work
kainate receptors = details: in words, literature; cited from earlier work
quisqualate receptors = details: in words, literature; cited from earlier work
[2] = target: quisqualate type receptors; assay: 3H-AMPA binding (displacement of 3H-AMPA from quisqualate type receptors, rat cerebral cortical membrane homogenate); details: concentration causing 50% displacement of specific 3H-AMPA binding; Hill analysis; pH 7.1, 0° C., 30 min
Description: The pharmacological properties of the compounds of the present invention can be illustrated by determining their capability for displacing radioactively labelled 2-amino-3-hydroxy-5-methyl-4-isoxazolepropionic acid (AMPA) from the quisqualate type receptors.
The displacement activity of the compounds may be shown by determining the IC50 value which represents the concentration (μg/ml) which causes a displacement of 50% of the specific binding of ^3 H-AMPA.
500 μl of thawed rat cerebral cortical membrane homogenate in Tris-HCl (30 mM), CaCl2 (2.5 mM) and KSCN (100 mM) pH 7.1 were incubated at 0° C. for 30 min. with 25 μl ^3 H-AMPA (5 nM final concentration) and the test compound and buffer. Nonspecific binding was determined by incubation with L-glutamic acid (600 μM final concentration). The binding reaction was terminated by adding 5 ml of ice-cold buffer followed by filtration through Whatman GF/C glass fibre filters and 2×5 ml wash with ice-cold buffer. Bound radioactivity was measured by scintillation counting. IC50 was determined by Hill analysis of at least four concentrations of test compound.

[3] = target: quisqualic acid stimulated 3H-GABA efflux from cultured cortical neurones (quisqualate receptors); assay: Release experiments: antagonism of quisqualic acid stimulated 3H-GABA efflux from cultured cortical neurones; type: cell-based, mouse; details: Table 1 Ki; test not stated
Description: The pharmacological properties of the compounds of the present invention can be illustrated by determining their capability for displacing radioactively labelled 2-amino-3-hydroxy-5-methyl-4-isoxazolepropionic acid (AMPA) from the quisqualate type receptors. […]
Cerebral cortices of 16 day old mouse embryos are chopped in 0.4×0.4 mm cubes. The tissue is dissociated by mild trypsinization (0.1% (wt/vol) trypsin, 37° C., 15 min) and subsequently inoculated into poly-L-lysine-coated 3 cm Petri dishes containing a slightly modified DMEM (24.5 mM KCl, 30 mM glucose) supplemented with p-aminobenzoate (7 μM), insulin (100 mU/1) and 10% (vol/vol) horse serum. Cells are maintained in culture for 5-7 days with the addition of the antimitotic agent cytosine arbinoside (40 μM) from day 2 in vitro to prevent glial proliferation. For further details and references see Drejer et al. (Exp. Brain Res. 47, 259 (1982)).
Release experiments are performed using the model described by Drejer et al. (Life Sci. 38, 2077 (1986)). Cerebral cortex interneurons cultured in Petri dishes (30 mm) are added 100 μM gamma-vinyl-GABA one hour before the experiment in order to inhibit degradation of GABA in the neurons. 30 min. before the experiment 5 μCi ^3 H-GABA is added to each culture and after this preloading period the cell monolayer at the bottom of the dish is covered with a piece of nylon mesh to protect the cells against mechanical damage and to facilitate dispersion of medium over the cell layer. The preloading medium is removed and the Petri dishes are placed in a superfusion system. This system consists of a peristaltic pump continuously delivering thermostated 37° C. superfusion medium (HEPES buffered saline (HBS): 10 mM HEPES, 135 mM NaCl, 5 mM KCl, 0.6 mM MGSO4, 1.0 mM CaCl2 and 6 mM D-glucose; pH 7.4) from a reservoir to the top of the slightly tilted Petri dish. The medium is continuously collected from the lower part of the dish and delivered to a fraction collector. Initially, the cells are superfused with HBS for 15 min. (flow rate 2 ml/min.). The cells are stimulated for 30 sec. every 4 min. by changing the superfusion medium from HBS to a corresponding medium containing quisqualate and test compound. The release of ^3 H-GABA in the presence of quisqualate (stimulated release in cpm) are corrected for the mean basal release (Cpm) before and after the stimulation.

SMILES: O=C(O)[C@@H]1CCCN[C@H]1C(=O)O (relative stereo) [trans-2,3-PDA, trans-2,3-piperidine dicarboxylic acid]
- agonist or antagonist activity on NMDA receptors [1]: strong to moderate agonist activity

SMILES: NC(CCC(=O)NCC(=O)O)C(=O)O (stereo not drawn) [3-glutamyl-glycine]
- antagonism / inhibition of binding at kainate receptors (kainate receptors): some selectivity for kainate receptors

SMILES: Cc1onc(O)c1CC(N)C(=O)O (stereo not drawn) [AMPA, 2-amino-3-hydroxy-5-methyl-4-isoxazolepropionic acid]
- agonist or antagonist activity on quisqualate receptors (quisqualate receptors): potent agonists

SMILES: N[C@H](CCCC(=O)O)C(=O)O [D-2-amino-adipic acid]
- agonist or antagonist activity on NMDA receptors [1]: moderate antagonist activity

SMILES: N[C@H](CCCCCP(=O)(O)O)C(=O)O [D-APH, 2-amino-7-phosphonoheptanoic acid]
- agonist or antagonist activity on NMDA receptors [1]: most potent and selective antagonists

SMILES: N[C@H](CCCP(=O)(O)O)C(=O)O [D-APV, 2-amino-5-phosphono-valeric acid]
- agonist or antagonist activity on NMDA receptors [1]: most potent and selective antagonists

SMILES: N[C@H](CCC(=O)O)C(=O)O [D-glutamic acid]
- agonist or antagonist activity on NMDA receptors [1]: strong to moderate agonist activity

SMILES: N#Cc1cc2c(cc1C(F)(F)F)[nH]c(=O)c(=O)n2O [Example 6 d, 7-Cyano-1-hydroxy-6-trifluoromethylquinoxaline-2,3(1H,4H)-dione]
- IC50 [2]: 0.15 µg/mL (≈ 0.553 µM)
- Ki [3]: 0.08 µg/mL (≈ 0.295 µM)

SMILES: O=c1[nH]c2cc(C(F)(F)F)c(Cl)cc2n(O)c1=O [Example 30 d, 7-chloro-1-hydroxy-6-trifluoromethylquinoxaline-2,3(1H,4H)-dione]
- IC50 [2]: 0.37 µg/mL (≈ 1.32 µM)
- Ki [3]: 0.12 µg/mL (≈ 0.428 µM)

SMILES: NS(=O)(=O)c1cc2c(cc1C(F)(F)F)[nH]c(=O)c(=O)n2O [Example 33 d, 1-Hydroxy-7-sulfamoyl-6-trifluoromethylquinoxaline-2,3(1H,4H)-dione]
- IC50 [2]: 0.14 µg/mL (≈ 0.43 µM)
- Ki [3]: 0.02 µg/mL (≈ 0.0615 µM)

SMILES: CC(=O)c1cc2c(cc1C#N)[nH]c(=O)c(=O)n2O [Example 34 e, 7-Acetyl-6-cyano-1-hydroxyquinoxaline-2,3(1H,4H)-dione]
- IC50 [2]: 0.09 µg/mL (≈ 0.367 µM)
- Ki [3]: 0.27 µg/mL (≈ 1.1 µM)

SMILES: CCOC(=O)CC[C@H](N)C(=O)OCC [GDEE, Glutamic acid diethyl ester]
- agonist or antagonist activity on quisqualate receptors (quisqualate receptors): selective but very weak antagonist

SMILES: N[C@H](C(=O)O)c1cc(=O)[nH]o1 [Ibotenic acid]
- agonist or antagonist activity on NMDA receptors [1]: strong to moderate agonist activity

SMILES: N[C@@H](CCC(=O)O)C(=O)O [L-glutamic acid]
- agonist or antagonist activity on quisqualate receptors (quisqualate receptors): potent agonists

SMILES: N[C@@H](CCS(=O)(=O)O)C(=O)O [L-homocysteic acid]
- agonist or antagonist activity on NMDA receptors [1]: strong to moderate agonist activity

SMILES: N[C@H](CCC[C@H](N)C(=O)O)C(=O)O [diaminopimelic acid]
- agonist or antagonist activity on NMDA receptors [1]: moderate antagonist activity

SMILES: N[C@@H](Cn1oc(=O)[nH]c1=O)C(=O)O [quisqualic acid]
- agonist or antagonist activity on quisqualate receptors (quisqualate receptors): activated selectively
